Each structure is given as a SMILES string.

The values that follow come from the CombiSolv-Exp solvation set (Vermeire and Green 2021).

This data set in a line: solvent given as SMILES.
The mark [1] stands for this setting: in CCCCCCCCC=CCCCCCCCC(=O)OCC(COC(=O)CCCCCCCC=CCCCCCCCC)OC(=O)CCCCCCCC=CCCCCCCCC

For the molecule `COc1cccc(OC)c1O`, the “solvation free energy, 298 K” value (in O) was -29.1 kJ/mol.
For the molecule `Clc1ccc(-c2ccc(Cl)cc2Cl)cc1`, the “solvation free energy, 298 K” value reads like this: (in CCCCCCCCO) -44.8 kJ/mol; (in O) -11.6 kJ/mol.
As for `Brc1c(Br)c(Br)c(Br)c(Br)c1Br`, the “solvation free energy, 298 K” value was -53 kJ/mol under setting [1] and -12.9 kJ/mol (in O).
As for `CCNc1nc(NCC)nc(SC)n1`, the “solvation free energy, 298 K” value (in O) is -42.2 kJ/mol.
For `CC1=CCC2CC3C(C)CCC13C2(C)C` (centres undefined), for the setting “in O”, the “solvation free energy, 298 K” value was determined as 3.26 kJ/mol.
With `CC(=O)Nc1ccc(O)cc1`, the “solvation free energy, 298 K” value (in C1CCOC1) was -67.4 kJ/mol; the “solvation free energy, 298 K” value (in C1COCCO1) was -62.5 kJ/mol; the “solvation free energy, 298 K” value (in CC(C)(C)O) was -66.1 kJ/mol; the “solvation free energy, 298 K” value (in CC(C)CO) was -65.2 kJ/mol; the “solvation free energy, 298 K” value (in CC(C)O) is -67 kJ/mol; the “solvation free energy, 298 K” value (in CC(C)OCCO) is -67.4 kJ/mol. The “solvation free energy, 298 K” value was -64.9 kJ/mol (in CC(O)COC(C)(C)C); -66.1 kJ/mol (in CCC(C)O); -63.9 kJ/mol (in CCCCCCCO); -64.7 kJ/mol (in CCCCCCO); -65.4 kJ/mol (in CCCCCO); -66.3 kJ/mol (in CCCCO). Also, the “solvation free energy, 298 K” value is -59.2 kJ/mol (in CCCCOC(C)=O); -50.2 kJ/mol (in CCCCOCCCC); -66.2 kJ/mol (in CCCCOCCO); -67.3 kJ/mol (in CCCO); -67.2 kJ/mol (in CCCOCCO); -68.7 kJ/mol (in CCOCCO). The “solvation free energy, 298 K” value is -72.4 kJ/mol (in CN(C)C=O); -69.6 kJ/mol (in CO); -56.3 kJ/mol (in COC(C)(C)C); -61.8 kJ/mol (in COC(C)=O); -66.8 kJ/mol (in COC(C)CCO); -53.6 kJ/mol (in ClCCl). Moreover, the “solvation free energy, 298 K” value reads like this: (in Fc1ccccc1) -50.8 kJ/mol; (in O) -62.2 kJ/mol.
For `CC(C)CCOC=O`, the “solvation free energy, 298 K” value (in O) was -8.91 kJ/mol.
Regarding `CCCCCCC(C)O` (centres undefined), the “solvation free energy, 298 K” value was -24.5 kJ/mol (in CCCCCCC) and -15.8 kJ/mol (in O).
Regarding `c1ccc2c(c1)ccc1c3ccccc3ccc21`, the “solvation free energy, 298 K” value under setting [1] is -58.3 kJ/mol and the “solvation free energy, 298 K” value (in O) is -27.3 kJ/mol.
In the case of `CNCCc1ccc(O)cc1`, the “solvation free energy, 298 K” value reads like this: (in C=CCCCCCCC=C) -39.7 kJ/mol; (in O) -49.7 kJ/mol.
Consider `O=C(O)c1cccc(C(=O)O)c1`, for which the “solvation free energy, 298 K” value is -57.5 kJ/mol (in CC(C)O); -55.8 kJ/mol (in CCC(C)O); -55.1 kJ/mol (in CCCCCCO); -56.5 kJ/mol (in CCCCO); -57.1 kJ/mol (in CCCO); -52.3 kJ/mol (in CCCOC(C)=O). The “solvation free energy, 298 K” value runs as follows: (in CN1CCCC1=O) -64.7 kJ/mol; (in CO) -59 kJ/mol; (in O) -47.2 kJ/mol.
Regarding `Cc1cccc(C)n1`, the “solvation free energy, 298 K” value is -22.1 kJ/mol (in CC(C)CC(C)(C)C) and -19.2 kJ/mol (in O).
With `CCOC(OCC)Oc1ccccc1`, where the note is “in O”, the “solvation free energy, 298 K” value was -21.9 kJ/mol.
`CC1CCC(C(C)C)C(O)C1` (centres undefined): the “solvation free energy, 298 K” value (in O) was -13.4 kJ/mol.
For `Cc1ccc(C2(C)CCCC2(C)C)cc1` (centres undefined), the “solvation free energy, 298 K” value (in O) is -2.55 kJ/mol.
On the same count and under the same terms, as for `Nc1ccccc1-c1ccccc1`, the figure is -30.4 kJ/mol.
As to `O=c1c2ccccc2sc2ccccc12`, the “solvation free energy, 298 K” value (in C1CCOC1) was -55.1 kJ/mol; the “solvation free energy, 298 K” value (in C1COCCO1) is -54 kJ/mol; the “solvation free energy, 298 K” value (in CC(C)CC(C)(C)C) was -44.9 kJ/mol; the “solvation free energy, 298 K” value (in CC(C)CCO) is -49.3 kJ/mol; the “solvation free energy, 298 K” value (in CC(C)CO) was -49.1 kJ/mol; the “solvation free energy, 298 K” value (in CC(C)O) was -49.9 kJ/mol. Also, the “solvation free energy, 298 K” value by setting is: (in CC(C)OC(C)C) -48.3 kJ/mol; (in CC(C)OCCO) -51.3 kJ/mol; (in CCC(C)O) -49.3 kJ/mol; (in CCCC(=O)OC) -52.2 kJ/mol; (in CCCC(C)CO) -50 kJ/mol; (in CCCC(C)O) -49.8 kJ/mol. In addition, the “solvation free energy, 298 K” value is, setting by setting: (in CCCCC(CC)CO) -50.1 kJ/mol; (in CCCCCC) -45.8 kJ/mol; (in CCCCCCC) -46.1 kJ/mol; (in CCCCCCCC) -46.4 kJ/mol; under setting [1], -49.5 kJ/mol; (in CCCCCCCCCCO) -50.4 kJ/mol. Moreover, the “solvation free energy, 298 K” value runs as follows: (in CCCCCCCCO) -50.6 kJ/mol; (in CCCCCCCO) -50.3 kJ/mol; (in CCCCCCO) -50.2 kJ/mol; (in CCCCCO) -50 kJ/mol; (in CCCCCOC(C)=O) -52.1 kJ/mol; (in CCCCO) -49.7 kJ/mol. For the same molecule, the “solvation free energy, 298 K” value by setting is: (in CCCCOC(C)=O) -52 kJ/mol; (in CCCCOCCCC) -48.8 kJ/mol; (in CCCCOCCO) -51.9 kJ/mol; (in CCCO) -49.5 kJ/mol; (in CCCOCCO) -51.8 kJ/mol; (in CCO) -49.7 kJ/mol. The “solvation free energy, 298 K” value was -52.3 kJ/mol (in CCOC(C)=O); -51.8 kJ/mol (in CCOCCO); -48 kJ/mol (in CO); -49.9 kJ/mol (in COC(C)(C)C); -52.5 kJ/mol (in COC(C)=O); -52.8 kJ/mol (in Cc1ccc(C)cc1). Moreover, the “solvation free energy, 298 K” value is -52.8 kJ/mol (in Cc1cccc(C)c1), -53.2 kJ/mol (in Cc1ccccc1C) and -28.9 kJ/mol (in O).
